melting point [°C] | SMILES
133 to 134 | CCCN1CCN(c2ccc(S(=O)(=O)Oc3cc(OC)c(OC)c(OC)c3)cc2)C1=O [Compound 101, 3,4,5-trimethoxyphenyl 4-(2-oxo-3-propylimidazolidin-1-yl)benzenesulfonate]
104 to 105 | CCCN1CCN(c2ccc(S(=O)(=O)Oc3cc(OC)cc(OC)c3)cc2)C1=O [Compound 104, 3,5-dimethoxyphenyl 4-(2-oxo-3-propylimidazolidin-1-yl)benzenesulfonate]

Source: patent publication US9579306B2, “Substituted 2-imidazolidinones and 2-imidazolones and their use in the treatment of cancer” (UNIVERSITÉ LAVAL, priority 2011, dated 2017)
